Assay results reported in patent publication US9073879B2, “Oxazole derivatives useful as modulators of FAAH” (MERCK SHARP & DOHME CORP., priority 2010, dated 2015).
pIC50: −log10 of the molar value.

How the values were obtained:
human FAAH [1] = target: T1, human FAAH (Homo sapiens, UniProt O00519); experiment: FAAH cell lysate assay (human lysate, FAAH_CHO, AAMCA substrate); type: biochemical; conditions: lysate of CHO cells expressing human FAAH; read-out: human lysate_IC50
T1 construct: The full length FAAH was subcloned into the mammalian expression vector, pcDEF.neo, using XbaI and EcoRI restriction sites; expressed in transfected cells
T1 sequence (O00519 1-579): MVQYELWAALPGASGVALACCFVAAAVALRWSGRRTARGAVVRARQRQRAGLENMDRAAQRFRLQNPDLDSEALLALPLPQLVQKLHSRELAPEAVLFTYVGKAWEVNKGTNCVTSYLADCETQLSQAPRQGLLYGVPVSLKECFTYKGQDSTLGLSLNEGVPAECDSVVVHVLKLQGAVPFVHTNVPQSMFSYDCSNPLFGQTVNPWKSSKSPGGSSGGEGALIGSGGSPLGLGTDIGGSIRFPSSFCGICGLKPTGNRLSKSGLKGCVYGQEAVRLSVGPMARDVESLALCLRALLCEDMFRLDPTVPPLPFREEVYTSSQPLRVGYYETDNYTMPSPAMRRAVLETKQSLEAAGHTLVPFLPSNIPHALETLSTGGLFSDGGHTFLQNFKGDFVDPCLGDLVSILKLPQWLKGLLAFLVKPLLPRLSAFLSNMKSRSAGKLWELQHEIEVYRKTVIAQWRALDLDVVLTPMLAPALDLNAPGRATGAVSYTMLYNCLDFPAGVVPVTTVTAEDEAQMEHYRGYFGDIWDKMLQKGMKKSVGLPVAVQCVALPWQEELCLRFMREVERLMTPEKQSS
Text: (§1) To assist in assay development stable cell lines for human, murine and rat full length FAAH were developed. Human FAAH cDNA (Accession No: NM_001441.1) was purchased from Origene (Rockville, Md.). The full length FAAH was subcloned into the mammalian expression vector, pcDEF.neo, using XbaI and EcoRI restriction sites and used for stable cell line generation.
CHO cells expressing FAAH were used to prepare either crude cell lysate or microsome fractions. To harvest cells, tissue culture media was decanted, the monolayer washed three times with Ca^++Mg^++ free PBS and cells recovered after 15 mm in enzyme free dissociation media (Millipore Corp, Billerica, Mass.). Cells were collected by centrifuging at 2000 rpm for 15 min. and the cell pellet re-suspended with 50 mM HEPES (pH 7.4) containing 1 mM EDTA and the protease inhibitors aprotinin (1 mg/ml) and leupeptin (100 μM). The suspension was sonicated at 4° C. and the cell lysate recovered after centrifuging at 12,000×g (14,600 rpm, SS34 rotor) for 20 min at 4° C. to form a crude pellet of cell debris, nuclei, peroxisomes, lysosomes, and mitochondria; the supernatant or cell lysate was used for FAAH enzyme assay. In some cases, microsomes fractions enriched in FAAH were prepared by centrifuging the cell lysate further at 27,000 rpm (100,000×g) in SW28 rotor for 50 minutes at 4° C. The pellet containing FAAH-enriched microsomes was re-suspend in 50 mM HEPES, (pH 7.4) 1 mM EDTA, and any remaining DNA sheared by passage of material through a 23 gauge needle and aliquots of enzyme were store at −80° C. prior to use.
(American Radiolabeled Chemicals; 1 mCi/ml) with FAAH (Life Sciences (1995), 56, 1999-2005 and Journal of Pharmacology and Experimented Therapeutics (1997), 283, 729-734), Analytical. Biochemistry (2003), 318:270-5. In addition, routine assays were performed monitoring hydrolysis of araehidonyl-7-amino-4-methylcoumarin amide (AAMCA) by following increase in fluorescence upon release of 7-amino 4-methyl coumarin (λEX=355 nm, (λEM=460 nm). Analytical. Biochemistry (2005). 343:143-51
(§2) Assays are performed on either cell lysate or microsome fractions prepared as described or in whole cell format employing either the fluorescent substrate AAMCA (Cayman chemical, Ann Arbor, Mich.) or ^3H-anandamide ([ETHANOLAMINE-1-3H] American Radiolabeled Chemicals; 1 mCi/ml). The cell lysate or microsome assay is performed in black PerkinElmer OptiPlates-384F by adding FAAH_CHO (whole cell (shown as human Whole cell or Human WC), cell lysate (shown as human lysate of human LY) or microsome) in assay buffer (50 mM Phosphate, pH 8.0, 1 mM EDTA, 200 mM KCl, 0.2% glycerol, 0.1% fatty acid free BSA) to each well, followed by either DMSO or compound and allowed to incubate at 22-25° C. for fifteen minutes. AAMCA substrate was used to achieve a final concentration of 1 μM and reaction allowed to proceed at room temperature for 1-3 hours. Fluorescent release as a measure of FAAH activity was monitored by reading the plate in an Envision plate Reader (Ex: 360/40 nM; Em: 460/40 nM). Whole cell assay is conducted with cells harvested after rinsing tissue culture flasks three times with Ca^++Mg^++ free PBS, incubating for 10 min in Enzyme free dissociation media and centrifuging for 5 minutes at 1,000 rpm in table top centrifuge. Cells are resuspended in assay buffer at desired cell number in (4×10^4 cells/assay in 96-well format; 1×10^4 cells/assay in 384-well format) and assayed as described.

human FAAH [2] = target: T1, human FAAH; experiment: FAAH whole cell assay (human Whole cell, FAAH_CHO, AAMCA substrate); type: cell-based; conditions: CHO cells expressing human FAAH, whole cell format; read-out: human cell_IC50
Text: as §1
Murine (accession number NM_010173) and Rat FAAH (accession number NM_024132) was amplified by reverse transcriptase polymerase chain reaction (RT-PCR) from brain cDNA (BD Biosciences, San Jose, Calif.) using primers 1 and 2 or primers 1 and 3 respectively (see Table). The resulting PCR product was ligated into pCR4 TOPO and DNA sequence confirmed. The full length murine FAAH was subcloned into the mammalian expression vector, pcDEFneo using either EcoRI (murine) or KpnI and EcoRI (rat) restriction sites. Chinese hamster ovary cells (CHO) were transfected following manufacturers protocol (AMAXA). Forty eight hours post transfection, cells were trypsinized and transferred to 96 well plates in Iscove's DMEM media supplemented with 2 mM Glutamine, 10% fetal calf serum, 1 mg/ml geneticin and HT Supplement (0.1 mM sodium hypoxanthine, 0.016 mM thymidine) in order to isolate single clones. Following selection in geneticin, individual clones were selected and FAAH activity was assessed using a whole cell fluorescent anandamide assay, modified from Ramarao et al (2005). Following removal of tissue culture media cells were dislodged following addition of Cellstripper (Mediatech, Inc. Manassas, Va.) and transferred to 96 well black clear bottom assay plate, centrifuged at 1,000 rpm for 3 mins and media removed and replaced with assay buffer (50 mM Tris pH8.0, 1 mM EDTA, 0.1% fatty acid free BSA). The reaction was initiated by addition of fluorescent substrate, AMC Arachidonoyl Amide (Cayman Chemical, Ann Arbor, Mich.) to 1 μM and reaction allowed to proceed for 2 hours at room temperature. Release of fluorescence was monitored in a CytoFluor Multiplate Reader. Cells expressing the highest amount of FAAH activity were selected for study with FAAH inhibitors.
as §2

In the case of `COC(=O)c1ccc(OCc2nc(-c3ccc(F)cc3)oc2Sc2ccc(Cl)cn2)cc1` [Example B2.11, Methyl-4-({5-[(5-chloropyridin-2-yl)sulfanyl]-2-(4-fluorophenyl)-1,3-oxazol-4-yl}methoxy)benzoate], the pIC50 (human FAAH [1]) was 8.70 and the pIC50 (human FAAH [2]) was 7.89.
With `O=C(O)c1ccc(OCc2nc(-c3ccc(F)cc3)oc2Sc2ccc(Cl)cn2)cc1` [Example B2.11.1, 4-({5-[(5-chloropyridin-2-yl)sulfanyl]-2-(4-fluorophenyl)-1,3-oxazol-4-yl}methoxy)benzoic acid] the pIC50 (human FAAH [1]) was 7.23 and the pIC50 (human FAAH [2]) was 6.60.
In the case of `CCNC(=O)c1ccc(OCc2nc(-c3ccc(F)cc3)oc2Sc2ccc(Cl)cn2)cc1` [Example B2.11.2, 4-({5-[(5-chloropyridin-2-yl)sulfanyl]-2-(4-fluorophenyl)-1,3-oxazol-4-yl}methoxy)-N-ethylbenzamide], the pIC50 (human FAAH [1]) was 8.52 and the pIC50 (human FAAH [2]) was 7.85.
Compound `CN(C)C(=O)c1ccc(OCc2nc(-c3ccc(F)cc3)oc2Sc2ccc(Cl)cn2)cc1` [Example B2.11.3, 4-({5-[(5-chloropyridin-2-yl)sulfanyl]-2-(4-fluorophenyl)-1,3-oxazol-4-yl}methoxy)-N,N-dimethylbenzamide] has a pIC50 (human FAAH [1]) of 6.83 and a pIC50 (human FAAH [2]) of 5.84.
In the case of `CNC(=O)c1ccc(OCc2nc(-c3ccc(F)cc3)oc2Sc2ccc(Cl)cn2)cc1` [Example B2.11.4, 4-({5-[(5-chloropyridin-2-yl)sulfanyl]-2-(4-fluorophenyl)-1,3-oxazol-4-yl}methoxy)-N-methylbenzamide], the pIC50 (human FAAH [1]) was 8.52 and the pIC50 (human FAAH [2]) was 8.30.
`O=C(NCC(F)(F)F)c1ccc(OCc2nc(-c3ccc(F)cc3)oc2Sc2ccc(Cl)cn2)cc1` [Example B2.11.5, 4-({5-[(5-chloropyridin-2-yl)sulfanyl]-2-(4-fluorophenyl)-1,3-oxazol-4-yl}methoxy)-N-(2,2,2-trifluoroethyl)benzamide] was tested, and the pIC50 (human FAAH [1]) was 8.30 and the pIC50 (human FAAH [2]) was 7.66.
For `Cn1ncnc1COCc1nc(-c2ccc(F)cc2)oc1Sc1ccc(Cl)cn1` [Example B2.12, 5-chloro-2-{[2-(4-fluorophenyl)-4-{[(1-methyl-1H-1,2,4-triazol-5-yl)methoxy]methyl}-1,3-oxazol-5-yl]sulfanyl}pyridine], the pIC50 (human FAAH [1]) was 6.09 and the pIC50 (human FAAH [2]) was 5.67.
Compound `Fc1ccc(-c2nc(COC3CCNCC3)c(Sc3ccc(Cl)cn3)o2)cc1` [Example B2.14, 5-chloro-2-({2-(4-fluorophenyl)-4-[(piperidin-4-yloxy)methyl]-1,3-oxazol-5-yl}sulfanyl)pyridine] has a pIC50 (human FAAH [1]) of 6.04 and a pIC50 (human FAAH [2]) of 5.47.
`Fc1ccc(-c2nc(COC3CCOCC3)c(Sc3ccc(Cl)cn3)o2)cc1` [Example B2.15, 5-chloro-2-({2-(4-fluorophenyl)-4-[(tetrahydro-2H-pyran-4-yloxy)methyl]-1,3-oxazol-5-yl}sulfanyl)pyridine] gave a pIC50 (human FAAH [1]) of 7.06 and a pIC50 (human FAAH [2]) of 6.46.
In the case of `CCNC(=O)c1ccc(OCc2nc(-c3ccc(F)cc3)oc2Sc2ccc(Cl)cn2)nc1` [Example B2.16, 6-({5-[(5-chloropyridin-2-yl)sulfanyl]-2-(4-fluorophenyl)-1,3-oxazol-4-yl}methoxy)-N-ethylpyridine-3-carboxamide], the pIC50 (human FAAH [1]) was 8.40 and the pIC50 (human FAAH [2]) was 8.00.
`COC(=O)c1ccc(NCc2nc(-c3ccc(F)cc3)oc2Sc2ccc(Cl)cn2)cc1` [Example B5.1, methyl 4-[({5-[(5-chloropyridin-2-yl)sulfanyl]-2-(4-fluorophenyl)-1,3-oxazol-4-yl}methyl)amino]benzoate] was tested, and the pIC50 (human FAAH [1]) was 8.52 and the pIC50 (human FAAH [2]) was 7.74.
Compound `CCNC(=O)c1ccc(NCc2nc(-c3ccc(F)cc3)oc2Sc2ccc(Cl)cn2)cc1` [Example B5.4, 4-[({5-[(5-chloropyridin-2-yl)sulfanyl]-2-(4-fluorophenyl)-1,3-oxazol-4-yl}methyl)amino]-N-ethylbenzamide] has a pIC50 (human FAAH [1]) of 8.52 and a pIC50 (human FAAH [2]) of 8.10.
`Fc1ccc(-c2nc(CNc3ccc4[nH]ncc4c3)c(Sc3ccc(Cl)cn3)o2)cc1` [Example B5.6, N-({5-[(5-chloropyridin-2-yl)sulfanyl]-2-(4-fluorophenyl)-1,3-oxazol-4-yl}methyl)-1H-indazol-5-amine] gave a pIC50 (human FAAH [1]) of 7.66 and a pIC50 (human FAAH [2]) of 7.42.
Work on `CCOC(=O)c1ccc(NCc2nc(-c3ccc(F)cc3)oc2Sc2ccc(Cl)cn2)nc1` [Example B5.7, ethyl 6-[({5-[(5-chloropyridin-2-yl)sulfanyl]-2-(4-fluorophenyl)-1,3-oxazol-4-yl}methyl)amino]pyridine-3-carboxylate] yielded a pIC50 (human FAAH [1]) of 8.22 and a pIC50 (human FAAH [2]) of 7.62.
`CCNC(=O)c1ccc(NCc2nc(-c3ccc(F)cc3)oc2Sc2ccc(Cl)cn2)nc1` [Example B5.8, 6-[({5-[(5-chloropyridin-2-yl)sulfanyl]-2-(4-fluorophenyl)-1,3-oxazol-4-yl}methyl)amino]-N-ethylpyridine-3-carboxamide] gave a pIC50 (human FAAH [1]) of 7.77 and a pIC50 (human FAAH [2]) of 7.38.
In the case of `O[C@H]1CC[C@H](NCc2nc(-c3ccc(F)cc3)oc2Sc2ccc(Cl)cn2)CC1` [Example B5.9, trans-4-[({5-[(5-chloropyridin-2-yl)sulfanyl]-2-(4-fluorophenyl)-1,3-oxazol-4-yl}methyl)amino] cyclohexanol], the pIC50 (human FAAH [1]) was 7.35 and the pIC50 (human FAAH [2]) was 6.86.
Work on `COC(=O)[C@H]1CC[C@H](NCc2nc(-c3ccc(F)cc3)oc2Sc2ccc(Cl)cn2)CC1` [Example B5.10, methyl trans-4-{({5-[(5-chloropyridin-2-yl)sulfanyl]-2-(4-fluorophenyl)-1,3-oxazol-4-yl}methyl)amino] cyclohexanecarboxylate] yielded a pIC50 (human FAAH [1]) of 7.92 and a pIC50 (human FAAH [2]) of 7.51.
